From PubChem BioAssay AID328 (DTP/NCI, 2004)
Where “and” joins values, the source holds several entries; their conditions need not be identical. Identical values can stand only once. Inconclusive results and toxic doses are left out.

Test system: BDF1 mice, P388 leukemia ip, median survival T/C
Assay: NCI In Vivo Anticancer Drug Screen. Data for tumor model P388 Leukemia (intraperitoneal) in B6D2F1 (BDF1) mice
Details: endpoint: median survival time, higher = longer survival
Procedure, shortened: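 Compound-treated tumour-bearing mice were compared with vehicle-treated controls. Survival was recorded, and the value is the treated-group measurement divided by the control-group measurement (T/C).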

[1] = dose: 25.0 mg/kg/injection, schedule: Q01DX009 (ip), vehicle: saline with Tween-80
[2] = dose: 25.0 mg/kg/injection, schedule: Q04DX003 (ip), vehicle: saline with Tween-80
[3] = dose: 50.0 mg/kg/injection, schedule: Q01DX009 (ip), vehicle: saline with Tween-80
[4] = dose: 50.0 mg/kg/injection, schedule: Q04DX003 (ip), vehicle: saline with Tween-80
[5] = dose: 100.0 mg/kg/injection, schedule: Q04DX003 (ip), vehicle: saline with Tween-80
[6] = dose: 50.0 mg/kg/injection, schedule: Q01DX009 (ip), vehicle: saline
[7] = dose: 75.0 mg/kg/injection, schedule: Q01DX009 (ip), vehicle: saline
[8] = dose: 100.0 mg/kg/injection, schedule: Q01DX009 (ip), vehicle: saline with Tween-80
[9] = dose: 75.0 mg/kg/injection, schedule: Q04DX003 (ip), vehicle: saline with Tween-80
[10] = dose: 150.0 mg/kg/injection, schedule: Q04DX003 (ip), vehicle: saline with Tween-80
[11] = dose: 200.0 mg/kg/injection, schedule: Q04DX003 (ip), vehicle: saline with Tween-80
[12] = dose: 400.0 mg/kg/injection, schedule: Q04DX003 (ip), vehicle: saline with Tween-80
[13] = dose: 100.0 mg/kg/injection, schedule: Q04DX003 (ip), vehicle: saline
[14] = dose: 200.0 mg/kg/injection, schedule: Q04DX003 (ip), vehicle: saline
[15] = dose: 400.0 mg/kg/injection, schedule: Q04DX003 (ip), vehicle: saline
[16] = dose: 6.25 mg/kg/injection, schedule: Q01DX009 (ip), vehicle: saline with Tween-80
[17] = dose: 12.5 mg/kg/injection, schedule: Q01DX009 (ip), vehicle: saline
[18] = dose: 25.0 mg/kg/injection, schedule: Q01DX009 (ip), vehicle: saline
[19] = dose: 6.25 mg/kg/injection, schedule: Q04DX003 (ip), vehicle: saline with Tween-80
[20] = dose: 12.5 mg/kg/injection, schedule: Q04DX003 (ip), vehicle: saline with Tween-80
[21] = dose: 3.13 mg/kg/injection, schedule: Q01DX009 (ip), vehicle: saline with Tween-80

In the case of `O=C1c2ccccc2-c2cccc3cccc1c23`, the T/C (dose: 6.25 mg/kg/injection, schedule: Q01DX001 (ip), vehicle: saline sonified) was 96 % of control, the T/C (dose: 12.5 mg/kg/injection, schedule: Q01DX001 (ip), vehicle: saline sonified) was 96 % of control and the T/C (dose: 25.0 mg/kg/injection, schedule: Q01DX001 (ip), vehicle: saline sonified) was 92 % of control.

`N#CC(C#N)=c1ccc(=C(C#N)C#N)cc1` was tested, and the T/C [1] was 108 % of control, the T/C [2] was 88 % of control and the T/C [3] was 108 % of control. For the same compound, the T/C [4] was 92 % of control and the T/C [5] was 111 % of control.

In the case of `C=C1C(=O)O[C@@H]2C[C@@H](C)[C@@H]3[C@@H](OC4OC(COC(C)=O)C(O)C(O)C4O)CC(=O)[C@@]3(C)C[C@H]12` (stereo partly specified), the T/C (dose: 2.8 mg/kg/injection, schedule: Q01DX009 (ip), vehicle: saline) was 100 % of control, the T/C (dose: 4.2 mg/kg/injection, schedule: Q01DX009 (ip), vehicle: saline) was 122 % of control and the T/C [6] was 100 % of control. The T/C [7] was 105 % of control.

With `CC1CCS(=O)(=O)CC1.[Cl][Hg][Cl]` the T/C (dose: 0.3 mg/kg/injection, schedule: Q01DX009 (ip), vehicle: saline) was 95 % of control, the T/C (dose: 0.6 mg/kg/injection, schedule: Q01DX009 (ip), vehicle: saline) was 100 % of control and the T/C (dose: 1.2 mg/kg/injection, schedule: Q01DX009 (ip), vehicle: saline) was 95 % of control.

With `Nc1nc(-c2cccc3ccccc23)cc2ccccc12` the T/C [1] was 115 % of control, the T/C [3] was 119 % of control and the T/C [8] was 151 % of control and 182 % of control. For the same compound, the T/C (dose: 200.0 mg/kg/injection, schedule: Q01DX009 (ip), vehicle: saline with Tween-80) was 151 % of control.

In the case of `NNc1cnc2ccccc2n1`, the T/C (dose: 37.5 mg/kg/injection, schedule: Q04DX003 (ip), vehicle: saline with Tween-80) was 100 % of control, the T/C [9] was 191 % of control and the T/C [10] was 100 % of control.

With `CCCSCC(C)C` the T/C [5] was 100 % of control, the T/C [11] was 109 % of control and the T/C [12] was 90 % of control.

`O=S(=O)(O)CCN1CCN(CCO)CC1` was tested, and the T/C [13] was 91 % of control, the T/C [14] was 108 % of control and the T/C [15] was 95 % of control.

With `CN(C)[C@@H]1C(=O)C(C(=O)NCN(CCCl)CCCl)=C(O)[C@@]2(O)C(=O)C3=C(O)c4c(O)cccc4[C@@](C)(O)[C@H]3C[C@@H]12` the T/C (dose: 3.12 mg/kg/injection, schedule: Q01DX009 (ip), vehicle: saline with Tween-80) was 104 % of control, the T/C (dose: 6.25 mg/kg/injection, schedule: Q01DX009 (ip), vehicle: Klucel (hydroxypropylcellulose) (HPC)) was 91 % of control and the T/C [16] was 100 % of control. For the same compound, the T/C (dose: 9.0 mg/kg/injection, schedule: Q01DX009 (ip), vehicle: saline) was 159 % of control, the T/C (dose: 12.5 mg/kg/injection, schedule: Q01DX009 (ip), vehicle: Klucel (hydroxypropylcellulose) (HPC)) was 108 % of control and the T/C (dose: 12.5 mg/kg/injection, schedule: Q01DX009 (ip), vehicle: saline with Tween-80) was 100 % of control. The T/C (dose: 14.0 mg/kg/injection, schedule: Q01DX009 (ip), vehicle: saline) was 172 % of control, the T/C (dose: 20.0 mg/kg/injection, schedule: Q04DX003 (ip), vehicle: saline) was 150 % of control and the T/C (dose: 22.0 mg/kg/injection, schedule: Q01DX009 (ip), vehicle: saline) was 161 % of control and 209 % of control. For the same compound, the T/C [1] was 90 % of control and 109 % of control, the T/C (dose: 33.0 mg/kg/injection, schedule: Q01DX009 (ip), vehicle: saline) was 169 % of control and the T/C (dose: 33.0 mg/kg/injection, schedule: Q04DX003 (ip), vehicle: saline with Tween-80) was 163 % of control. The T/C (dose: 44.0 mg/kg/injection, schedule: Q04DX003 (ip), vehicle: saline) was 186 % of control, the T/C (dose: 50.0 mg/kg/injection, schedule: Q01DX009 (ip), vehicle: Klucel (hydroxypropylcellulose) (HPC)) was 163 % of control and the T/C [3] was 86 % of control and 109 % of control. For the same compound, the T/C [6] was 203 % of control and 208 % of control, the T/C [4] was 186 % of control and the T/C (dose: 67.0 mg/kg/injection, schedule: Q04DX003 (ip), vehicle: saline) was 196 % of control. The T/C [7] was 211 % of control, the T/C [9] was 218 % of control and the T/C [8] was 109 % of control. The T/C [13] was 229 % of control and 220 % of control and the T/C [14] was 91 % of control.

For `[Cl][Rh][Cl].[NH-]c1ccc(S(N)(=O)=O)cc1.[NH-]c1ccc(S(N)(=O)=O)cc1.[NH-]c1ccc(S(N)(=O)=O)cc1.[NH-]c1ccc(S(N)(=O)=O)cc1`, the T/C [5] was 108 % of control, the T/C [11] was 103 % of control and the T/C [12] was 107 % of control.

With `C1CCN(NC2=NCCO2)CC1` the T/C [17] was 95 % of control, the T/C [18] was 108 % of control and the T/C [6] was 100 % of control.

With `C/C=C1\CN(C(=O)C(NC(=O)C(N)C(O)C(O)COC(N)=O)C2OC(n3cc(C(=O)O)c(=O)[nH]c3=O)C(O)C2O)C1C(=O)O` (stereo unspecified) (tested in a mixture with another compound) the T/C (dose: 100.0 mg/kg/injection, schedule: Q01DX008 (ip), vehicle: saline) was 90 % of control and the T/C (dose: 200.0 mg/kg/injection, schedule: Q01DX008 (ip), vehicle: saline) was 100 % of control.

For `C=CC(CO)N1CC1` (stereo unspecified), the T/C [19] was 100 % of control, the T/C [20] was 112 % of control and the T/C [2] was 104 % of control.

In the case of `O=C(Nc1ccc(Nc2ccncc2)cc1)c1ccc(Nc2ccnc3ccc([N+](=O)[O-])cc23)cc1[N+](=O)[O-]`, the T/C [17] was 93 % of control, the T/C [6] was 88 % of control and the T/C (dose: 50.0 mg/kg/injection, schedule: Q04DX003 (ip), vehicle: saline) was 111 % of control. The T/C (dose: 100.0 mg/kg/injection, schedule: Q01DX009 (ip), vehicle: saline) was 91 % of control, the T/C [13] was 105 % of control and the T/C (dose: 200.0 mg/kg/injection, schedule: Q01DX009 (ip), vehicle: saline) was 98 % of control. The T/C [14] was 93 % of control, the T/C (dose: 400.0 mg/kg/injection, schedule: Q01DX009 (ip), vehicle: saline) was 119 % of control and the T/C [15] was 88 % of control.

In the case of `C=CCNC(=O)NCC=C`, the T/C (dose: 100.0 mg/kg/injection, schedule: Q01DX010 (ip), vehicle: saline) was 161 % of control.

For `NC(Cn1cc(N(CCCl)CCCl)c(=O)[nH]c1=O)C(=O)O` (stereo unspecified), the T/C (dose: 6.0 mg/kg/injection, schedule: Q01DX009 (ip), vehicle: saline) was 175 % of control, the T/C (dose: 12.0 mg/kg/injection, schedule: Q01DX009 (ip), vehicle: saline) was 189 % of control and the T/C (dose: 24.0 mg/kg/injection, schedule: Q01DX009 (ip), vehicle: saline) was 215 % of control.

In the case of `CC(C)[N+](C)(C)CC(O)COc1cccc2ccccc12` (stereo unspecified), the T/C [17] was 103 % of control and 112 % of control, the T/C [18] was 88 % of control and 109 % of control and the T/C [6] was 105 % of control and 123 % of control.

For `CN(C)c1ccc(/C=C/c2nccc3ccccc23)cc1`, the T/C (dose: 0.78 mg/kg/injection, schedule: Q01DX009 (ip), vehicle: saline with Tween-80) was 114 % of control, the T/C (dose: 1.56 mg/kg/injection, schedule: Q01DX009 (ip), vehicle: saline with Tween-80) was 112 % of control and the T/C [21] was 102 % of control. For the same compound, the T/C [16] was 107 % of control and 110 % of control.

`CC1(C#N)c2ccccc2C=CN1C(=O)c1ccccc1` (stereo unspecified) was tested, and the T/C (dose: 100.0 mg/kg/injection, schedule: Q01DX009 (ip), vehicle: Klucel (hydroxypropylcellulose) (HPC)) was 90 % of control, the T/C (dose: 100.0 mg/kg/injection, schedule: Q04DX003 (ip), vehicle: Klucel (hydroxypropylcellulose) (HPC)) was 100 % of control and the T/C (dose: 200.0 mg/kg/injection, schedule: Q01DX009 (ip), vehicle: Klucel (hydroxypropylcellulose) (HPC)) was 100 % of control. The T/C (dose: 200.0 mg/kg/injection, schedule: Q04DX003 (ip), vehicle: Klucel (hydroxypropylcellulose) (HPC)) was 95 % of control, the T/C (dose: 400.0 mg/kg/injection, schedule: Q01DX009 (ip), vehicle: Klucel (hydroxypropylcellulose) (HPC)) was 100 % of control and the T/C (dose: 400.0 mg/kg/injection, schedule: Q04DX003 (ip), vehicle: Klucel (hydroxypropylcellulose) (HPC)) was 100 % of control.

With `Cc1ccc(C(=O)N(N)C2CCCCC2)cc1` the T/C [3] was 92 % of control.

With `c1ccc(COc2ccc(OCc3ccccc3)cc2)cc1` the T/C [9] was 104 % of control, the T/C [10] was 109 % of control and the T/C (dose: 300.0 mg/kg/injection, schedule: Q04DX003 (ip), vehicle: saline with Tween-80) was 104 % of control.

For `O=C(COc1cc(Cl)c(Cl)cc1Cl)OCCOc1cc(Cl)c(Cl)cc1Cl`, the T/C [21] was 91 % of control, the T/C (dose: 3.13 mg/kg/injection, schedule: Q04DX003 (ip), vehicle: saline with Tween-80) was 100 % of control and the T/C [19] was 95 % of control. The T/C [20] was 100 % of control.
